These results are taken from patent publication US10689344B2, “Biphenylamide derivative Hsp90 inhibitors” (University of Kansas, priority 2013, dated 2020).

What is called IC50 is the concentration at which inhibition is half-maximal. Low values mean greater potency, high ones weaker potency.

In test [1] the test system is MCF-7 (estrogen receptor positive breast cancer cells). In words: Anti-proliferation assay (MTS/PMS, 72 h), MCF-7. Type of test: cell-based. To be noted: Homo sapiens. As to the method: (§1) Cells were maintained in a 1:1 mixture of Advanced DMEM/F12 (Gibco) supplemented with non-essential amino acids, L-glutamine (2 mM), streptomycin (500 μg/mL), penicillin (100 units/mL), and 10% FBS. Cells were grown to confluence in a humidified atmosphere (37° C., 5% CO2), seeded (2000/well, 100 μL) in 96-well plates, and allowed to attach overnight. Compound at varying concentrations in DMSO (1% DMSO final concentration) was added, and cells were returned to the incubator for 72 h. At 72 h, the number of viable cells was determined using an MTS/PMS cell proliferation kit (Promega) per the manufacturer's instructions. Cells incubated in 1% DMSO were used at 100% proliferation, and values were adjusted accordingly. IC50 values were calculated from separate experiments performed in triplicate using GraphPad Prism.
(§2) Anti-proliferative studies with the compounds described herein were performed against the SKBr3 (estrogen receptor negative, HER2 over-expressing breast cancer cells) and MCF-7 (estrogen receptor positive breast cancer cells) breast cancer cell lines. […] In some embodiments, in contrast to the novobiocin derivatives, which usually manifest better anti-proliferative activities against the SKBr3 cell line, the biphenyl derivatives described herein were more efficacious against the MCF-7 cell line. In general, all substitutions on the phenyl ring were determined to be beneficial, consistent with the existence of a hydrophobic pocket in this region of the Hsp90 C-terminal binding site.

Test [2] deals with SKBr3 (estrogen receptor negative, HER2 over-expressing breast cancer cells). In words: Anti-proliferation assay (MTS/PMS, 72 h), SKBr3. Type of test: cell-based. The note with it: Homo sapiens. As to the method:
as §1, §2

[3] abbreviates: MCF7, Table 6, para-para biphenyl core with substituted benzylamide.
[4] abbreviates: SK-BR-3, Table 6, para-para biphenyl core with substituted benzylamide.
[5] abbreviates: MCF7, Table 8, para-para biphenyl core with substituted biphenylamide group.
The mark [6] stands for this setting: SK-BR-3, Table 8, para-para biphenyl core with substituted biphenylamide group.

`CN1CCC(Oc2ccc(-c3ccc(NC(=O)c4ccc(C(C)(C)C)cc4)cc3)cc2)CC1` [Compound 41g, 4-(tert-butyl)-N-(4′-((1-methylpiperidin-4-yl)oxy)-[1,1′-biphenyl]-4-yl)benzamide]: the IC50 in test [1] (MCF7, Table 1, ortho, meta and para biphenyl cores) is 1080 ± 80 nM; in test [1] (setting [3]), 1080 ± 80 nM; in test [2] (SK-BR-3, Table 1, ortho, meta and para biphenyl cores), 1260 ± 370 nM; in test [2] (setting [4]) it was 1260 ± 370 nM.

In the case of `CN1CCC(Oc2ccc(-c3ccc(NC(=O)c4cccc(Cl)c4)cc3)cc2)CC1` [Compound 41h, 3-chloro-N-(4′-((1-methylpiperidin-4-yl)oxy)-[1,1′-biphenyl]-4-yl)benzamide], the figures for the half-inhibitory concentration (IC50) in test [1] (setting [3]) and in test [2] (setting [4]) were 2830 ± 690 nM and 1940 ± 370 nM, respectively.

With `COc1cccc(C(=O)Nc2ccc(-c3ccc(OC4CCN(C)CC4)cc3)cc2)c1` [Compound 41i, 3-methoxy-N-(4′-((1-methylpiperidin-4-yl)oxy)-[1,1′-biphenyl]-4-yl)benzamide], the IC50 in test [1] (setting [3]) came to 5310 ± 700 nM; in test [2] (setting [4]), 2870 ± 510 nM.

On to `Cc1cc(C(=O)Nc2ccc(-c3ccc(OC4CCN(C)CC4)cc3)cc2)ccc1Cl` [Compound 41j, 4-chloro-3-methyl-N-(4′-((1-methylpiperidin-4-yl)oxy)-[1,1′-biphenyl]-4-yl)benzamide], for which the values for the IC50 in test [1] (setting [3]) and in test [2] (setting [4]) were 1030 ± 160 nM and 1110 ± 420 nM, respectively.

Take `Cc1ccc(C(=O)Nc2ccc(-c3ccc(OC4CCN(C)CC4)cc3)cc2)cc1Cl` [Compound 41k, 3-chloro-4-methyl-N-(4′-((1-methylpiperidin-4-yl)oxy)-[1,1′-biphenyl]-4-yl)benzamide]: the IC50 stood at 2280 ± 490 nM in test [1] (setting [3]) and 1960 ± 240 nM in test [2] (setting [4]).

As to `Cc1ccc(C(=O)Nc2ccc(-c3ccc(OC4CCN(C)CC4)cc3)cc2)cc1Br` [Compound 41l, 3-bromo-4-methyl-N-(4′-((1-methylpiperidin-4-yl)oxy)-[1,1′-biphenyl]-4-yl)benzamide], the results for the half-inhibitory concentration (IC50) in test [1] (setting [3]) and in test [2] (setting [4]) were 3350 ± 360 nM and 2800 ± 180 nM, respectively.

For `Cc1ccc(C(=O)Nc2ccc(-c3ccc(OC4CCN(C)CC4)cc3)cc2)cc1I` [Compound 41m, 3-iodo-4-methyl-N-(4′-((1-methylpiperidin-4-yl)oxy)-[1,1′-biphenyl]-4-yl)benzamide], the half-inhibitory concentration (IC50) was 1170 ± 200 nM in test [1] (setting [3]) and 930 ± 200 nM in test [2] (setting [4]).

For the molecule `CN1CCC(Oc2ccc(-c3ccc(NC(=O)c4ccc(Cl)c(Cl)c4)cc3)cc2)CC1` [Compound 41n, 3,4-dichloro-N-(4′-((1-methylpiperidin-4-yl)oxy)-[1,1′-biphenyl]-4-yl)benzamide], the figures for the IC50 in test [1] (setting [3]) and in test [2] (setting [4]) were 1600 ± 160 nM and 1200 ± 80 nM, respectively.

Regarding `CN1CCC(Oc2ccc(-c3ccc(NC(=O)c4cc(Cl)cc(Cl)c4)cc3)cc2)CC1` [Compound 41o, 3,5-dichloro-N-(4′-((1-methylpiperidin-4-yl)oxy)-[1,1′-biphenyl]-4-yl)benzamide], the IC50 in test [1] (setting [3]) is 1680 ± 130 nM; in test [2] (setting [4]), 810 ± 280 nM.

`CN1CCC(Oc2ccc(-c3ccc(NC(=O)c4ccc(Cl)cc4Cl)cc3)cc2)CC1` [Compound 41p, 2,4-dichloro-N-(4′-((1-methylpiperidin-4-yl)oxy)-[1,1′-biphenyl]-4-yl)benzamide]: the 50% inhibitory concentration (IC50) in test [1] (setting [3]) is 1370 ± 330 nM; in test [2] (setting [4]), 800 ± 220 nM.

Turning to `CN1CCC(Oc2ccc(-c3ccc(NC(=O)c4ccccc4-c4ccccc4)cc3)cc2)CC1` [Compound 41q, N-(4′-((1-methylpiperidin-4-yl)oxy)-[1,1′-biphenyl]-4-yl)-[1,1′-biphenyl]-2-carboxamide], the figures for the IC50 in test [1] (setting [3]) and in test [2] (setting [4]) were 6670 ± 830 nM and 6260 ± 1540 nM, respectively.

`CN1CCC(Oc2ccc(-c3ccc(NC(=O)c4cccc(-c5ccccc5)c4)cc3)cc2)CC1` [Compound 41r, N-(4′-((1-methylpiperidin-4-yl)oxy)-[1,1′-biphenyl]-4-yl)-[1,1′-biphenyl]-3-carboxamide]: the half-inhibitory concentration (IC50) in test [1] (setting [3]) was found to be 1150 ± 180 nM; in test [1] (setting [5]), 1150 ± 180 nM; in test [2] (setting [4]), 730 ± 70 nM; in test [2] (setting [6]) it was 730 ± 70 nM.

As to `CN1CCC(Oc2ccc(-c3ccc(NC(=O)c4ccc(-c5ccccc5)cc4)cc3)cc2)CC1` [Compound 41s, N-(4′-((1-methylpiperidin-4-yl)oxy)-[1,1′-biphenyl]-4-yl)-[1,1′-biphenyl]-4-carboxamide], the IC50 in test [1] (setting [3]) amounted to 4440 ± 600 nM; in test [2] (setting [4]), 4590 ± 60 nM.

For the molecule `CN1CCC(Oc2ccc(-c3ccc(NC(=O)c4ccc5ncccc5c4)cc3)cc2)CC1` [Compound 45b, N-(4′-((1-methylpiperidin-4-yl)oxy)-[1,1′-biphenyl]-4-yl)quinoline-6-carboxamide], the half-inhibitory concentration (IC50) in test [1] (setting [3]) stood at 2070 ± 160 nM; in test [2] (setting [4]) it was 1310 ± 180 nM.

With `CN1CCC(Oc2ccc(-c3ccc(NC(=O)c4cc5ccccc5[nH]4)cc3)cc2)CC1` [Compound 47a, N-(4′-((1-methylpiperidin-4-yl)oxy)-[1,1′-biphenyl]-4-yl)-1H-indole-2-carboxamide], the IC50 in test [1] (setting [3]) came to 580 ± 20 nM; in test [2] (setting [4]) it was 640 ± 80 nM.

Take `CN1CCC(Oc2ccc(-c3ccc(NC(=O)c4cc5ccccc5s4)cc3)cc2)CC1` [Compound 47b, N-(4′-((1-methylpiperidin-4-yl)oxy)-[1,1′-biphenyl]-4-yl)benzo[b]thiophene-2-carboxamide]: the IC50 in test [1] (setting [3]) came out at 2010 ± 580 nM; in test [2] (setting [4]) it was 1320 ± 230 nM.

As to `COc1ccc(C(=O)Nc2ccc(-c3ccc(OC4CCN(C)CC4)cc3)cc2)cc1-c1ccccc1` [Compound 49a, 6-methoxy-N-(4′-((1-methylpiperidin-4-yl)oxy)-[1,1′-biphenyl]-4-yl)-[1,1′-biphenyl]-3-carboxamide], the half-inhibitory concentration (IC50) in test [1] (setting [5]) is 840 ± 10 nM; in test [2] (setting [6]), 510 ± 110 nM.

Take `COc1cccc(-c2cccc(C(=O)Nc3ccc(-c4ccc(OC5CCN(C)CC5)cc4)cc3)c2)c1` [Compound 49b, 3′-methoxy-N-(4′-((1-methylpiperidin-4-yl)oxy)-[1,1′-biphenyl]-4-yl)-[1,1′-biphenyl]-3-carboxamide]: the concentration for half-maximal inhibition (IC50) in test [1] (setting [5]) came to 1020 ± 80 nM; in test [2] (setting [6]) it was 810 ± 140 nM.

For `COc1ccc(-c2cc(C(=O)Nc3ccc(-c4ccc(OC5CCN(C)CC5)cc4)cc3)ccc2OC)cc1` [Compound 49c, 4′,6-dimethoxy-N-(4′-((1-methylpiperidin-4-yl)oxy)-[1,1′-biphenyl]-4-yl)-[1,1′-biphenyl]-3-carboxamide], the half-inhibitory concentration (IC50) is 790 ± 130 nM in test [1] (setting [5]) and 630 ± 40 nM in test [2] (setting [6]).

As to `COc1ccc(C(=O)Nc2ccc(-c3ccc(OC4CCN(C)CC4)cc3)cc2)cc1-c1cccc(OC(C)=O)c1` [Compound 49d, 2′-methoxy-5′-((4′-((1-methylpiperidin-4-yl)oxy)-[1,1′-biphenyl]-4-yl)carbamoyl)-[1,1′-biphenyl]-3-yl acetate], the IC50 in test [1] (setting [5]) is 620 ± 70 nM; in test [2] (setting [6]) it was 270 ± 50 nM.

With `COc1ccc(C(=O)Nc2ccc(-c3ccc(OC4CCN(C)CC4)cc3)cc2)cc1-c1ccc(OC(C)=O)cc1` [Compound 49e, 2′-methoxy-5′-((4′-((1-methylpiperidin-4-yl)oxy)-[1,1′-biphenyl]-4-yl)carbamoyl)-[1,1′-biphenyl]-4-yl acetate], the IC50 in test [1] (setting [5]) worked out at 640 ± 80 nM; in test [2] (setting [6]), 140 ± 10 nM.

In the case of `COc1ccc(C(=O)Nc2ccc(-c3ccc(OC4CCN(C)CC4)cc3)cc2)cc1-c1cccc(Cl)c1` [Compound 49f, 3′-chloro-6-methoxy-N-(4′-((1-methylpiperidin-4-yl)oxy)-[1,1′-biphenyl]-4-yl)-[1,1′-biphenyl]-3-carboxamide], the IC50 in test [1] (setting [5]) was determined as 320 ± 90 nM; in test [2] (setting [6]), 330 ± 30 nM.

For the molecule `COc1ccc(C(=O)Nc2ccc(-c3ccc(OC4CCN(C)CC4)cc3)cc2)cc1-c1ccc(Cl)cc1` [Compound 49g, 4′-chloro-6-methoxy-N-(4′-((1-methylpiperidin-4-yl)oxy)-[1,1′-biphenyl]-4-yl)-[1,1′-biphenyl]-3-carboxamide], the IC50 turned out to be 820 ± 130 nM in test [1] (setting [5]) and 1060 ± 50 nM in test [2] (setting [6]).

On to `COc1ccc(C(=O)Nc2ccc(-c3ccc(OC4CCN(C)CC4)cc3)cc2)cc1-c1cccc([N+](=O)[O-])c1` [Compound 49h, 6-methoxy-N-(4′-((1-methylpiperidin-4-yl)oxy)-[1,1′-biphenyl]-4-yl)-3′-nitro-[1,1′-biphenyl]-3-carboxamide], for which the half-inhibitory concentration (IC50) was 1090 ± 280 nM in test [1] (setting [5]) and 400 ± 70 nM in test [2] (setting [6]).

For the molecule `COc1cccc(-c2cc(C(=O)Nc3ccc(-c4ccc(OC5CCN(C)CC5)cc4)cc3)ccc2O)c1` [Compound 49j], the IC50 in test [1] (setting [5]) was found to be 2710 ± 450 nM; in test [2] (setting [6]), 2780 ± 350 nM.

Turning to `Cc1ccc(C(=O)Nc2ccc(-c3ccc(OC4CCN(C)CC4)cc3)cc2)cc1-c1cccc(Cl)c1` [Compound 49k], the IC50 in test [1] (setting [5]) was 1600 ± 110 nM; in test [2] (setting [6]) it was 3160 ± 370 nM.

On to `COc1ccc(C(=O)Nc2ccc(-c3ccc(OC4CCN(C)CC4)cc3)cc2)cc1-c1cccc(O)c1` [Compound 50a, 3′-hydroxy-6-methoxy-N-(4′-((1-methylpiperidin-4-yl)oxy)-[1,1′-biphenyl]-4-yl)-[1,1′-biphenyl]-3-carboxamide], for which the half-inhibitory concentration (IC50) in test [1] (setting [5]) came out at 1080 ± 340 nM; in test [2] (setting [6]) it was 1560 ± 350 nM.

As to `COc1ccc(C(=O)Nc2ccc(-c3ccc(OC4CCN(C)CC4)cc3)cc2)cc1-c1ccc(O)cc1` [Compound 50b, 4′-hydroxy-6-methoxy-N-(4′-((1-methylpiperidin-4-yl)oxy)-[1,1′-biphenyl]-4-yl)-[1,1′-biphenyl]-3-carboxamide], the IC50 was 500 ± 10 nM in test [1] (setting [5]) and 130 ± 20 nM in test [2] (setting [6]).
